Source: the supplement of paper PMC10307832

Tests used:
Assay in all cases: relative viability (nuclei count vs DMSO), 5 days (fraction); higher = more cells survive
Sorafenib + Pemetrexed = compound: CNC(=O)c1cc(Oc2ccc(NC(=O)Nc3ccc(Cl)c(C(F)(F)F)c3)cc2)ccn1 [Sorafenib] + Nc1nc2[nH]cc(CCc3ccc(C(=O)N[C@@H](CCC(=O)O)C(=O)O)cc3)c2c(=O)[nH]1 [Pemetrexed] (partner 0.2 µM)
Summary of the method: (§1)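 Relative viability equals treated-well nuclei counts divided by vehicle-well nuclei counts. Counts came from 4× images of lung cancer cell lines grown in 1536-well plates for 5 days after pin-tool dosing on the day after seeding. Dosing used one drug alone or a fixed anchor-drug dose plus five library-drug doses (not always all listed) in √10 steps, and values are medians of duplicate plates.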

Sorafenib + Decitabine = compound: CNC(=O)c1cc(Oc2ccc(NC(=O)Nc3ccc(Cl)c(C(F)(F)F)c3)cc2)ccn1 [Sorafenib] + Nc1ncn([C@H]2C[C@H](O)[C@@H](CO)O2)c(=O)n1 [Decitabine] (partner 2 µM)
Summary of the method: as §1

Sorafenib + Navitoclax = compound: CNC(=O)c1cc(Oc2ccc(NC(=O)Nc3ccc(Cl)c(C(F)(F)F)c3)cc2)ccn1 [Sorafenib] + CC1(C)CCC(c2ccc(Cl)cc2)=C(CN2CCN(c3ccc(C(=O)NS(=O)(=O)c4ccc(N[C@H](CCN5CCOCC5)CSc5ccccc5)c(S(=O)(=O)C(F)(F)F)c4)cc3)CC2)C1 [Navitoclax] (partner 0.5 µM)
Summary of the method: as §1

Sorafenib + Vorinostat = compound: CNC(=O)c1cc(Oc2ccc(NC(=O)Nc3ccc(Cl)c(C(F)(F)F)c3)cc2)ccn1 [Sorafenib] + O=C(CCCCCCC(=O)Nc1ccccc1)NO [Vorinostat] (partner 1 µM)
Summary of the method: as §1

Sorafenib + Tozasertib = compound: CNC(=O)c1cc(Oc2ccc(NC(=O)Nc3ccc(Cl)c(C(F)(F)F)c3)cc2)ccn1 [Sorafenib] + Cc1cc(Nc2cc(N3CCN(C)CC3)nc(Sc3ccc(NC(=O)C4CC4)cc3)n2)n[nH]1 [Tozasertib] (partner 0.1 µM)
Summary of the method: as §1

Row | Cell Line | relative viability (Sorafenib + Pemetrexed; first compound 0.08 µM) | relative viability (Sorafenib + Pemetrexed; first compound 0.253 µM) | relative viability (Sorafenib + Pemetrexed; first compound 2.53 µM) | relative viability (Sorafenib + Pemetrexed; first compound 8 µM) | relative viability (Sorafenib + Decitabine; first compound 0.08 µM) | relative viability (Sorafenib + Decitabine; first compound 0.253 µM) | relative viability (Sorafenib + Decitabine; first compound 2.53 µM) | relative viability (Sorafenib + Decitabine; first compound 8 µM) | relative viability (Sorafenib + Navitoclax; first compound 0.08 µM) | relative viability (Sorafenib + Navitoclax; first compound 0.253 µM) | relative viability (Sorafenib + Navitoclax; first compound 2.53 µM) | relative viability (Sorafenib + Navitoclax; first compound 8 µM) | relative viability (Sorafenib + Vorinostat; first compound 0.08 µM) | relative viability (Sorafenib + Vorinostat; first compound 0.253 µM) | relative viability (Sorafenib + Vorinostat; first compound 2.53 µM) | relative viability (Sorafenib + Vorinostat; first compound 8 µM) | relative viability (Sorafenib + Tozasertib; first compound 0.08 µM) | relative viability (Sorafenib + Tozasertib; first compound 2.53 µM) | relative viability (Sorafenib + Tozasertib; first compound 8 µM) | relative viability (Sorafenib + Tozasertib; first compound 0.253 µM)
1 | NCI-H441 | 0.283 | 0.234 | 0.257 | 0.227 | 0.23 | 0.146 | 0.207 | 0.277 | 0.488 | 0.431 | 0.471 | 0.417 | 0.638 | 0.756 | 0.547 | 0.47 | 0.644 | 0.542 | 0.386 | –
2 | NCI-H1651 | 0.575 | 0.601 | 0.611 | 0.511 | 0.658 | 0.564 | 0.577 | 0.501 | 1.04 | 0.985 | 1.04 | 0.472 | 0.504 | 0.461 | 0.6 | 0.542 | 0.833 | 0.698 | 0.445 | 0.643
3 | NCI-H1755 | – | 0.385 | 0.419 | 0.355 | 0.72 | 0.715 | 0.753 | 0.634 | 1.02 | 0.987 | 0.924 | 0.705 | 0.81 | 0.702 | 0.843 | 0.549 | 0.498 | 0.471 | 0.456 | 0.532
4 | PC-3 [JPC-3] | 1.11 | 0.856 | 1.34 | 1.2 | 0.835 | 0.763 | 0.837 | 0.826 | 0.883 | 0.775 | 0.806 | 0.877 | 0.886 | 0.555 | 1.1 | 0.883 | 0.879 | 0.881 | 0.823 | 0.846
5 | UMC-11 | 0.869 | 0.788 | 0.772 | 0.474 | 0.596 | 0.57 | 0.535 | 0.249 | 0.32 | – | 0.34 | 0.152 | 0.395 | 0.422 | 0.379 | 0.36 | 0.209 | 0.202 | 0.184 | 0.195
6 | ABC-1 | – | – | – | – | 1.23 | – | 0.823 | 1 | – | – | – | – | 1.23 | 0.811 | 1.22 | 0.482 | 0.227 | 0.214 | 0.185 | 0.219
7 | SW 1573 | 0.911 | – | 0.719 | 0.374 | 0.57 | 0.511 | 0.408 | 0.182 | 1.1 | 0.947 | 0.983 | 0.689 | 0.662 | 0.618 | 0.366 | 0.425 | 0.194 | 0.174 | 0.119 | 0.205
8 | SK-LU-1 | 1.06 | 0.871 | 0.897 | 0.388 | 0.605 | 0.564 | 0.578 | 0.396 | 0.926 | – | 0.729 | 0.207 | 0.824 | – | 0.719 | 0.455 | 0.346 | 0.325 | 0.211 | 0.347
9 | COR-L23 | 0.2 | 0.199 | 0.19 | 0.212 | 0.417 | 0.374 | 0.501 | 0.332 | 1.03 | 0.898 | 1.1 | 0.485 | 0.512 | 0.413 | 0.478 | 0.32 | 0.24 | 0.113 | 0.079 | 0.185
